The record followed here is EP3046573B1, “AMYLIN ANALOGUES” (Zealand Pharma A/S, priority 2013, dated 2015).

Read-outs that look alike come from different tables or passages of the source. Numbered stars: 1 amine (or outer) side, 2 acyl side, 3 side chain; on linkers, the order of the positions; unused ones are H or OH. Bridge positions count the residues as written; N and C are the ends. Square brackets hold non-standard residues; d marks the D form. Peptide text beside a SMILES is read from it. * marks the point of attachment. C20 diacid = O=C(O)CCCCCCCCCCCCCCCCCCC(=O)*; γGlu = O=C(O)[C@H](CCC(=O)[*:2])N[*:1]; NMeI = CC[C@H](C)[C@H](NC)C(=O)O; Orn = NCCC[C@H](N)C(=O)O; Dab = NCC[C@H](N)C(=O)O; Dap = NC[C@H](N)C(=O)O; Sar = CNCC(=O)O

For data set [1], the target named is T1, human calcitonin receptor (hCTR2) (Homo sapiens, UniProt P30988).
T1 construct: expressed in transfected cells
T1 sequence (P30988 25-474): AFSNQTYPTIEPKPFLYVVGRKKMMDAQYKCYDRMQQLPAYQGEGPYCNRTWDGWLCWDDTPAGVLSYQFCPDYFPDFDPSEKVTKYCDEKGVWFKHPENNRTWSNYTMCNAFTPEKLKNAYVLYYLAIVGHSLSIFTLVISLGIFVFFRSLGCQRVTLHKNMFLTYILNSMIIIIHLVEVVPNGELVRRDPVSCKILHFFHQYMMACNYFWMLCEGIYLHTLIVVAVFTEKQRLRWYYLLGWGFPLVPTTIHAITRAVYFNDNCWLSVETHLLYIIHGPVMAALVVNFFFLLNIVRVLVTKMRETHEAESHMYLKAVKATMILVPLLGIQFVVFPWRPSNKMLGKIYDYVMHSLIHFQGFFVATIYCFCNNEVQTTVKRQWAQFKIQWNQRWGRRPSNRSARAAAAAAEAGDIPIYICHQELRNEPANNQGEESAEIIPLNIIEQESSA
Description: hCTR2 assay: induction of cAMP (AlphaScreen cAMP Assay kit) in COS7 cells expressing hCTR2. The format is cell-based. The procedure, abridged: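 COS7 stable hCTR2 clone (RAMP-free); peptide dose-response 15 min 37° C in Tyrode pH 7.4 + 100 µM IBMX + 0.1% casein; lysis 10 min RT; AlphaScreen cAMP; 4PL fit.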

The nature of data set [2]: Solubility assessment (turbidity absorbance at 325 nm). The format is physicochemical. The note with it: stock 2 mg/ml diluted 1:1, ambient temperature (typically 25°C), n=1; for Solubility, Acetate buffer pH 4: 100 mM acetate buffer pH 4.0; for Solubility, Acetate buffer pH 5: 100 mM acetate buffer pH 5.0; for Solubility, Histidine buffer pH 6: 100 mM histidine buffer pH 6.0; for Solubility, Histidine buffer pH 7: 100 mM histidine buffer pH 7.0; for Solubility, Phosphate buffer pH 6: 100 mM phosphate buffer pH 6.0; for Solubility, Phosphate buffer pH 7: 100 mM phosphate buffer pH 7.0; for Solubility, Phosphate buffer pH 7.5: 100 mM phosphate buffer pH7.5. The procedure, abridged:
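Peptide stock (2 mg/ml) in water acidified to pH 2.5 with HCl was diluted 1:1 into 100 mM acetate (pH 4.0, 5.0), histidine (pH 6.0, 7.0) or phosphate (pH 6.0, 7.0, 7.5) buffer. A280 and A325 were read at about 25°C, n=1. A325 ≤ 0.02 meant solubility ≥ 1 mg/ml.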

Where [3] appears, read: cAMP induction in COS7 cells expressing hCTR2, average of a minimum of 3 determinations, read-out: hCTR2 EC50.

For `CC[C@H](C)[C@@H](C(=O)N[C@@H](CC(C)C)C(=O)N[C@@H](CO)C(=O)N[C@@H](CO)C(=O)N[C@H](C(=O)N[C@@H](CC(N)=O)C(=O)N[C@H](C(=O)NCC(=O)N[C@@H](CO)C(=O)N[C@@H](CC(N)=O)C(=O)N[C@H](C(=O)N1CCC[C@H]1C(N)=O)[C@@H](C)O)C(C)C)[C@@H](C)O)N(C)C(=O)[C@H](C)NC(=O)CN(C)C(=O)[C@H](Cc1ccccc1)NC(=O)[C@H](CC(N)=O)NC(=O)[C@H](CC(N)=O)NC(=O)[C@H](CO)NC(=O)[C@H](CO)NC(=O)[C@H](Cc1c[nH]cn1)NC(=O)[C@H](Cc1c[nH]cn1)NC(=O)[C@H](CC(C)C)NC(=O)[C@H](Cc1ccccc1)NC(=O)[C@H](CCC(=O)O)NC(=O)[C@H](C)NC(=O)[C@H](CC(C)C)NC(=O)[C@H](CCCNC(=N)N)NC(=O)[C@H](CCC(N)=O)NC(=O)[C@@H](NC(=O)[C@H](C)NC(=O)[C@@H]1CSSC[C@H](NC(=O)[C@H](CCN)NC(=O)CC[C@H](NC(=O)CCCCCCCCCCCCCCCCCCC(=O)O)C(=O)O)C(=O)N[C@@H](CC(N)=O)C(=O)N[C@@H]([C@@H](C)O)C(=O)N[C@@H](C)C(=O)N[C@@H]([C@@H](C)O)C(=O)N1)[C@@H](C)O` [Compound 63, [19CD]-isoGlu-Dab-C()NTATC()ATQRLAEFLHHSSNNF-Gly(Me)-A-Ile(Me)-LSSTNVGSNTP-NH2] ({C20 diacid-γGlu}-[Dab]CNTATCATQRLAEFLHHSSNNF[Sar]A[NMeI]LSSTNVGSNTP-NH2; disulfide 2-7), the EC50 in data set [1] is 0.2 nM. In data set [2], the “Solubility, Acetate buffer pH 4” value is given as “SS (SS indicates solubility ≥ 1mg/ml)”; the “Solubility, Acetate buffer pH 5” value was “II (II indicates solubility ≤ 1 mg/ml)”; the “Solubility, Histidine buffer pH 6” value is “SS (SS indicates solubility ≥ 1mg/ml)”; the “Solubility, Histidine buffer pH 7” value is reported as “SS (SS indicates solubility ≥ 1mg/ml)”. Also, in data set [2], the “Solubility, Phosphate buffer pH 6” value is given as “SS (SS indicates solubility ≥ 1mg/ml)”; the “Solubility, Phosphate buffer pH 7” value was “SS (SS indicates solubility ≥ 1mg/ml)”; the “Solubility, Phosphate buffer pH 7.5” value was “SS (SS indicates solubility ≥ 1mg/ml)”.
Regarding `CC[C@H](C)[C@@H](C(=O)N[C@@H](CC(C)C)C(=O)N[C@@H](CO)C(=O)N[C@@H](CO)C(=O)N[C@H](C(=O)N[C@@H](CC(N)=O)C(=O)N[C@H](C(=O)NCC(=O)N[C@@H](CO)C(=O)N[C@@H](CC(N)=O)C(=O)N[C@H](C(=O)N1CCC[C@H]1C(N)=O)[C@@H](C)O)C(C)C)[C@@H](C)O)N(C)C(=O)CN(C)C(=O)[C@H](Cc1ccccc1)NC(=O)[C@H](CC(N)=O)NC(=O)[C@H](CC(N)=O)NC(=O)[C@H](CO)NC(=O)[C@H](CO)NC(=O)[C@H](Cc1c[nH]cn1)NC(=O)[C@H](Cc1c[nH]cn1)NC(=O)[C@H](CC(C)C)NC(=O)[C@H](Cc1ccccc1)NC(=O)[C@H](CCC(=O)O)NC(=O)[C@H](C)NC(=O)[C@H](CC(C)C)NC(=O)[C@H](CCCNC(=N)N)NC(=O)[C@H](CCC(N)=O)NC(=O)[C@@H](NC(=O)[C@H](C)NC(=O)[C@@H]1CSSC[C@H](NC(=O)[C@H](CCN)NC(=O)CC[C@H](NC(=O)CCCCCCCCCCCCCCCCCCC(=O)O)C(=O)O)C(=O)N[C@@H](CC(N)=O)C(=O)N[C@@H]([C@@H](C)O)C(=O)N[C@@H](C)C(=O)N[C@@H]([C@@H](C)O)C(=O)N1)[C@@H](C)O` [Compound 64, [19CD]-isoGlu-Dab-C()NTATC()ATQRLAEFLHHSSNNF-Gly(Me)-Ile(Me)-LSSTNVGSNTP-NH2] ({C20 diacid-γGlu}-[Dab]CNTATCATQRLAEFLHHSSNNF[Sar][NMeI]LSSTNVGSNTP-NH2; disulfide 2-7), the EC50 in data set [1] (setting [3]) worked out at 0.4 nM. For the same compound, in data set [2], the “Solubility, Acetate buffer pH 4” value is “SS (SS indicates solubility ≥ 1mg/ml)”; the “Solubility, Acetate buffer pH 5” value is given as “II (II indicates solubility ≤ 1 mg/ml)”; the “Solubility, Histidine buffer pH 6” value is “SS (SS indicates solubility ≥ 1mg/ml)”; the “Solubility, Histidine buffer pH 7” value is recorded as “SS (SS indicates solubility ≥ 1mg/ml)”. In data set [2], the “Solubility, Phosphate buffer pH 6” value is on record as “SS (SS indicates solubility ≥ 1mg/ml)”; the “Solubility, Phosphate buffer pH 7” value is on record as “SS (SS indicates solubility ≥ 1mg/ml)”; the “Solubility, Phosphate buffer pH 7.5” value was “SS (SS indicates solubility ≥ 1mg/ml)”.
On to `CC[C@H](C)[C@@H](C(=O)N[C@@H](CC(C)C)C(=O)N[C@@H](CO)C(=O)N[C@@H](CO)C(=O)N[C@H](C(=O)N[C@@H](CC(N)=O)C(=O)N[C@H](C(=O)NCC(=O)N[C@@H](CO)C(=O)N[C@@H](CC(N)=O)C(=O)N[C@H](C(=O)N1CCC[C@H]1C(N)=O)[C@@H](C)O)C(C)C)[C@@H](C)O)N(C)C(=O)CN(C)C(=O)[C@H](Cc1ccccc1)NC(=O)[C@H](CC(N)=O)NC(=O)[C@H](CC(N)=O)NC(=O)[C@H](CO)NC(=O)[C@H](CO)NC(=O)[C@H](Cc1c[nH]cn1)NC(=O)[C@H](Cc1c[nH]cn1)NC(=O)[C@H](CC(C)C)NC(=O)[C@H](Cc1ccccc1)NC(=O)[C@H](CCC(=O)O)NC(=O)[C@H](C)NC(=O)[C@H](CC(C)C)NC(=O)[C@H](CCCNC(=N)N)NC(=O)[C@H](CCC(N)=O)NC(=O)[C@@H](NC(=O)[C@H](C)NC(=O)[C@@H]1CSSC[C@H](NC(=O)[C@H](CCCN)NC(=O)CC[C@H](NC(=O)CCCCCCCCCCCCCCCCCCC(=O)O)C(=O)O)C(=O)N[C@@H](CC(N)=O)C(=O)N[C@@H]([C@@H](C)O)C(=O)N[C@@H](C)C(=O)N[C@@H]([C@@H](C)O)C(=O)N1)[C@@H](C)O` [Compound 66, [19CD]-isoGlu-Orn-C()NTATC()ATQRLAEFLHHSSNNF-Gly(Me)-Ile(Me)-LSSTNVGSNTP-NH2] ({C20 diacid-γGlu}-[Orn]CNTATCATQRLAEFLHHSSNNF[Sar][NMeI]LSSTNVGSNTP-NH2; disulfide 2-7), for which the EC50 in data set [1] (setting [3]) came to 0.11 nM. Further, in data set [2], the “Solubility, Acetate buffer pH 4” value was “SS (SS indicates solubility ≥ 1mg/ml)”; the “Solubility, Acetate buffer pH 5” value is “SS (SS indicates solubility ≥ 1mg/ml)”; the “Solubility, Histidine buffer pH 6” value is “SS (SS indicates solubility ≥ 1mg/ml)”; the “Solubility, Histidine buffer pH 7” value is “SS (SS indicates solubility ≥ 1mg/ml)”. In data set [2], the “Solubility, Phosphate buffer pH 6” value is recorded as “SS (SS indicates solubility ≥ 1mg/ml)”; the “Solubility, Phosphate buffer pH 7” value was “SS (SS indicates solubility ≥ 1mg/ml)”; the “Solubility, Phosphate buffer pH 7.5” value is reported as “SS (SS indicates solubility ≥ 1mg/ml)”.
With `CC[C@H](C)[C@@H](C(=O)N[C@@H](CC(C)C)C(=O)N[C@@H](CO)C(=O)N[C@@H](CO)C(=O)N[C@H](C(=O)N[C@@H](CC(N)=O)C(=O)N[C@H](C(=O)NCC(=O)N[C@@H](CO)C(=O)N[C@@H](CC(N)=O)C(=O)N[C@H](C(=O)N1CCC[C@H]1C(N)=O)[C@@H](C)O)C(C)C)[C@@H](C)O)N(C)C(=O)[C@H](C)NC(=O)CN(C)C(=O)[C@H](Cc1ccccc1)NC(=O)[C@H](CC(N)=O)NC(=O)[C@H](CC(N)=O)NC(=O)[C@H](CO)NC(=O)[C@H](CO)NC(=O)[C@H](Cc1c[nH]cn1)NC(=O)[C@H](Cc1c[nH]cn1)NC(=O)[C@H](CC(C)C)NC(=O)[C@H](Cc1ccccc1)NC(=O)[C@H](CCC(=O)O)NC(=O)[C@H](C)NC(=O)[C@H](CC(C)C)NC(=O)[C@H](CCCNC(=N)N)NC(=O)[C@H](CCC(N)=O)NC(=O)[C@@H](NC(=O)[C@H](C)NC(=O)[C@@H]1CSSC[C@H](NC(=O)[C@H](CN)NC(=O)CC[C@H](NC(=O)CCCCCCCCCCCCCCCCCCC(=O)O)C(=O)O)C(=O)N[C@@H](CC(N)=O)C(=O)N[C@@H]([C@@H](C)O)C(=O)N[C@@H](C)C(=O)N[C@@H]([C@@H](C)O)C(=O)N1)[C@@H](C)O` [Compound 67, [19CD]-isoGlu-Dap-C()NTATC()ATQRLAEFLHHSSNNF-Gly(Me)-A-Ile(Me)-LSSTNVGSNTP-NH2] ({C20 diacid-γGlu}-[Dap]CNTATCATQRLAEFLHHSSNNF[Sar]A[NMeI]LSSTNVGSNTP-NH2; disulfide 2-7), in data set [1], the EC50 was 0.19 nM. Moreover, in data set [2], the “Solubility, Acetate buffer pH 4” value is listed as “SS (SS indicates solubility ≥ 1mg/ml)”; the “Solubility, Acetate buffer pH 5” value is “SS (SS indicates solubility ≥ 1mg/ml)”; the “Solubility, Histidine buffer pH 6” value is “SS (SS indicates solubility ≥ 1mg/ml)”; the “Solubility, Histidine buffer pH 7” value was “SS (SS indicates solubility ≥ 1mg/ml)”. In addition, in data set [2], the “Solubility, Phosphate buffer pH 6” value is reported as “SS (SS indicates solubility ≥ 1mg/ml)”; the “Solubility, Phosphate buffer pH 7” value is given as “SS (SS indicates solubility ≥ 1mg/ml)”; the “Solubility, Phosphate buffer pH 7.5” value is listed as “SS (SS indicates solubility ≥ 1mg/ml)”.
